# Target: canine TRPM8 (Canis lupus familiaris, UniProt Q1A7N1)
# Assay: In Vitro Canine TRPM8 Functional Assay (Ca2+ fluorescence, icilin activation)
# Assay type: cell-based
# Details: for IC50: HEK293 cells stably expressing canine TRPM8, icilin activation, eight-point dose-response, read-out: IC50; for inhibition at 0.2 µM / % Inh @ 0.2 (μM): compound at 0.2 μM, canine TRPM8, icilin activation; for inhibition at 0.2 µM: read-out: % Inh @ 0.2
# Outline: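 HEK293 cells stably expressing canine TRPM8 were loaded with Calcium 3 dye (35 min at 37 °C, then 25 min at room temperature). Compound was added and Ca2+ fluorescence was read for 5 min before icilin at a concentration giving about 80% maximal response. EC50/IC50 came from eight-point dose-response curves, quadruplicate wells.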
# Chain of canine TRPM8 (Q1A7N1 1-1104): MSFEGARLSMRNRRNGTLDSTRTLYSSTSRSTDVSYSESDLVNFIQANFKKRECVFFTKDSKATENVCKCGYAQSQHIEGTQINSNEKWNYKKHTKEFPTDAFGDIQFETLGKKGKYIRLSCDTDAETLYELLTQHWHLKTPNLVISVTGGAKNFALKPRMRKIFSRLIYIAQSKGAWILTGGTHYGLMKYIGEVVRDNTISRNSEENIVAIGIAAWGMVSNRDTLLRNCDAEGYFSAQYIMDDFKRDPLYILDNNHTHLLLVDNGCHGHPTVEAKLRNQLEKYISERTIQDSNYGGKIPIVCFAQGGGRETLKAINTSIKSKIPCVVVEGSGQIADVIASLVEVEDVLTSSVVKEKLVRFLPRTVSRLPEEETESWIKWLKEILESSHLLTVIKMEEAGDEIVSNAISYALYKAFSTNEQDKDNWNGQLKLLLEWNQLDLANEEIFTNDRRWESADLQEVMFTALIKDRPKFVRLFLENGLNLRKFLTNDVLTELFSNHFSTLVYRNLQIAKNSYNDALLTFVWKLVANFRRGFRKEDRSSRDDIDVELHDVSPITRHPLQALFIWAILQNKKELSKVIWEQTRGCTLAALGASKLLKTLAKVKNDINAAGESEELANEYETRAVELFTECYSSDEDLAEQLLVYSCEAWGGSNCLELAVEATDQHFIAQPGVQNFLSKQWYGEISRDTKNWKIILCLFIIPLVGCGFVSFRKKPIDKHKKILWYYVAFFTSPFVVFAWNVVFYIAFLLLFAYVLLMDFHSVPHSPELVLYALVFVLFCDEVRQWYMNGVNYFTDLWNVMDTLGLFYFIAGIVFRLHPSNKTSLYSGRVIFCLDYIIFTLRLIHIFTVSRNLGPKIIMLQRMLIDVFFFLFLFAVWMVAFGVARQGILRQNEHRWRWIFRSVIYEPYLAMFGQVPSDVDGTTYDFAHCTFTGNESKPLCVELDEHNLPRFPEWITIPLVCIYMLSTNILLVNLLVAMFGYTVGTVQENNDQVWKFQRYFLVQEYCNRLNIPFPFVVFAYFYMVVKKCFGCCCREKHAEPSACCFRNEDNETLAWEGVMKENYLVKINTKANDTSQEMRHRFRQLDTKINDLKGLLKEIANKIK
IC50 [nM],inhibition at 0.2 µM [%],Structure (SMILES),% Inh @ 0.2 (μM) [%]
21.9,102,"Cc1c(N(Cc2ccc(F)c(C(F)(F)F)c2)S(=O)(=O)c2ccc(C(=O)NO)cc2)sc2ccccc12 [Compound 555, 4-([4-Fluoro-3-trifluoromethyl-benzyl)-(3-methyl-benzo[b]thiophen-2-yl)-sulfamoyl]-N-hydroxy-benzamide]",–
48.2,99.3,"CCCCN(c1cc2ccccc2s1)S(=O)(=O)c1ccc(C(=O)O)cc1 [Compound 556, N-(Benzo[b]thiophen-2-yl)-N-(butyl)-4-carboxy-benzenesulfonamide]",–
–,39.5,"Cc1c(N(Cc2ccc(F)c(C(F)(F)F)c2)S(=O)(=O)c2ccc(C(=O)O)cc2)sc2cc(C(F)(F)F)ccc12 [Compound 557, N-(3-Methyl-6-trifluoromethyl-benzo[b]thiophen-2-yl)-N-(4-fluoro-3-trifluoromethyl-benzyl)-4-carboxy-benzenesulfonamide]",–
99.4,80.9,"CCCCN(c1sc2cc(C(F)(F)F)ccc2c1C)S(=O)(=O)c1ccc(C(=O)O)cc1 [Compound 558, N-(3-Methyl-6-trifluoromethyl-benzo[b]thiophen-2-yl)-N-(butyl)-4-carboxy-benzenesulfonamide]",–
65.7,104,"CCCCN(c1sc2ccccc2c1Br)S(=O)(=O)c1ccc(N(C)C)cc1 [Compound 560, N-(3-Bromo-benzo[b]thiophen-2-yl)-N-(butyl)-4-dimethylamino-benzenesulfonamide]",–
28.4,103,"CCCCN(c1sc2ccccc2c1Cl)S(=O)(=O)c1ccc(N(C)C)cc1 [Compound 561, N-(3-Chloro-benzo[b]thiophen-2-yl)-N-(butyl)-4-dimethylamino-benzenesulfonamide]",–
33.1,103,"CCCCN(c1sc2ccccc2c1Cl)S(=O)(=O)c1ccc(N2CCOCC2)cc1 [Compound 562, N-(3-Chloro-benzo[b]thiophen-2-yl)-N-(butyl)-4-morpholin-4-yl-benzenesulfonamide]",–
49.3,94,"COC(=O)c1ccc(S(=O)(=O)N(Cc2ccc(F)c(C(F)(F)F)c2)c2sc3ccccc3c2C(C)C)cc1 [Compound 563, N-(4-Fluoro-3-trifluoromethyl-benzyl)-N-(3-isopropyl-benzo[b]thiophen-2-yl)-4-carbomethoxy-benzenesulfonamide]",–
–,57.7,"COC(=O)c1ccc(S(=O)(=O)N(CCC2CC2)c2sc3ccccc3c2C(C)C)cc1 [Compound 564, N-(2-Cyclopropyl-ethyl)-N-(3-isopropyl-benzo[b]thiophen-2-yl)-4-carbomethoxy-benzenesulfonamide]",–
117,74.4,"COC(=O)c1ccc(S(=O)(=O)N(CCCCC(F)(F)F)c2sc3ccccc3c2C(C)C)cc1 [Compound 565, N-(3-Isopropyl-benzo[b]thiophen-2-yl)-N-(5,5,5-trifluoro-pentyl)-4-carbomethoxy-benzenesulfonamide]",–
1.8,104,"CC(C)c1c(N(Cc2ccc(F)c(C(F)(F)F)c2)S(=O)(=O)c2ccc(C(=O)O)cc2)sc2ccccc12 [Compound 566, N-(4-Fluoro-3-trifluoromethyl-benzyl)-N-(3-isopropyl-benzo[b]thiophen-2-yl)-4-carboxy-benzenesulfonamide]",–
10.3,104,"CC(C)c1c(N(CCC2CC2)S(=O)(=O)c2ccc(C(=O)O)cc2)sc2ccccc12 [Compound 567, N-(2-Cyclopropyl-ethyl)-N-(3-isopropyl-benzo[b]thiophen-2-yl)-4-carboxy-benzenesulfonamide]",–
2.4,104,"CC(C)c1c(N(CCCCC(F)(F)F)S(=O)(=O)c2ccc(C(=O)O)cc2)sc2ccccc12 [Compound 568, N-(5,5,5-Trifluoro-pentyl)-N-(3-isopropyl-benzo[b]thiophen-2-yl)-4-carboxy-benzenesulfonamide]",–
35,88,"O=S(=O)(c1ccc(-c2nnn[nH]2)cc1)N(CCC1CC1)c1cc2ccccc2s1 [Compound 569, N-(Benzo[b]thiophen-2-yl)-N-(2-cyclopropyl-ethyl)-4-(1H-tetrazol-5-yl)-benzenesulfonamide]",–
6.6,101,"Cc1c(N(CCC2CC2)S(=O)(=O)c2ccc(-c3nnn[nH]3)cc2)sc2ccccc12 [Compound 570, N-(3-Methyl-benzo[b]thiophen-2-yl)-N-(cyclopropyl-ethyl)-4-(1H-tetrazol-5-yl)-benzenesulfonamide]",–
–,14,"O=S(=O)(c1ccc(-c2nnn[nH]2)cc1)N(CCC(F)(F)F)c1cc2ccccc2s1 [Compound 571, N-(Benzo[b]thiophen-2-yl)-N-(3,3,3-trifluoro-propyl)-4-(1H-tetrazol-5-yl)-benzenesulfonamide]",–
16.6,101,"Cc1c(N(CCC(F)(F)F)S(=O)(=O)c2ccc(-c3nnn[nH]3)cc2)sc2ccccc12 [Compound 572, N-(3-Methyl-benzo[b]thiophen-2-yl)-N-(3,3,3-trifluoro-propyl)-4-(1H-tetrazol-5-yl)-benzenesulfonamide]",–
–,28,"N#Cc1cccc(S(=O)(=O)N(CCC(F)(F)F)c2cc3ccccc3s2)c1 [Compound 573, N-(Benzo[b]thiophen-2-yl)-N-(3,3,3-trifluoro-propyl)-3-cyano-benzenesulfonamide]",–
–,16,"N#Cc1cccc(S(=O)(=O)N(CCCC(F)(F)F)c2cc3ccccc3s2)c1 [Compound 574, N-(Benzo[b]thiophen-2-yl)-N-(4,4,4-trifluoro-butyl)-3-cyano-benzenesulfonamide]",–
–,15,"N#Cc1cccc(S(=O)(=O)N(CCC2CC2)c2cc3ccccc3s2)c1 [Compound 575, N-(Benzo[b]thiophen-2-yl)-N-(2-cyclopropyl-ethyl)-3-cyano-benzenesulfonamide]",–
19.1,100,"O=S(=O)(c1cccc(-c2nnn[nH]2)c1)N(Cc1ccc(F)c(C(F)(F)F)c1)c1sc2ccccc2c1Br [Compound 576, N-(3-Bromo-benzo[b]thiophen-2-yl)-N-(4-fluoro-3-trifluoromethyl-benzyl)-3-(1H-tetrazol-5-yl)-benzenesulfonamide]",–
7.8,101,"O=S1(=O)C(N(CCC2CC2)S(=O)(=O)c2ccccc2)=C(Br)c2ccccc21 [Compound 577, N-(3-Bromo-1,1-dioxo-1H-benzo[b]thiophen-2-yl)-N-(2-cyclopropylethyl)-benzenesulfonamide]",–
26.7,91,"O=S(=O)(c1cccc(-c2nnn[nH]2)c1)N(Cc1ccc(F)c(C(F)(F)F)c1)c1sc2ccccc2c1Cl [Compound 578, N-(3-Chloro-benzo[b]thiophen-2-yl)-N-(4-fluoro-3-trifluoromethyl-benzyl)-3-(1H-tetrazol-5-yl)-benzenesulfonamide]",–
–,102,"O=S(=O)(c1ccc(-c2nnn[nH]2)cc1)N(CCCCC(F)(F)F)c1sc2ccccc2c1Br [Compound 579, N-(3-Bromo-benzo[b]thiophen-2-yl)-N-(5,5,5-trifluoro-pentyl)-4-(1H-tetrazol-5-yl)-benzenesulfonamide]",–
22.1,101,"O=S(=O)(c1ccc(-c2nnn[nH]2)cc1)N(CCCCC(F)(F)F)c1sc2ccccc2c1Cl [Compound 580, N-(3-Chloro-benzo[b]thiophen-2-yl)-N-(5,5,5-trifluoro-pentyl)-4-(1H-tetrazol-5-yl)-benzenesulfonamide]",–
–,100,"O=c1[nH]c(-c2ccc(S(=O)(=O)N(CCCCC(F)(F)F)c3sc4ccccc4c3Br)cc2)no1 [Compound 583, N-(3-Bromo-benzo[b]thiophen-2-yl)-N-(5,5,5-trifluoro-pentyl)-4-(5-oxo-4,5-dihydro-[1,2,4]oxadiazol-3-yl)-benzenesulfonamide]",–
15.9,100,"O=c1[nH]c(-c2ccc(S(=O)(=O)N(CCCCC(F)(F)F)c3sc4ccccc4c3Cl)cc2)no1 [Compound 584, N-(3-Chloro-benzo[b]thiophen-2-yl)-N-(5,5,5-trifluoro-pentyl)-4-(5-oxo-4,5-dihydro-[1,2,4]oxadiazol-3-yl)-benzenesulfonamide]",–
6.4,101,"Nc1ccc(S(=O)(=O)N(CCC(F)(F)F)c2sc3ccccc3c2Cl)cc1 [Compound 585, 4-Amino-N-(3-chloro-benzo[b]thiophen-2-yl)-N-(3,3,3-trifluoro-propyl)-benzenesulfonamide]",–
34.6,100,"Nc1ccc(S(=O)(=O)N(CCC(F)(F)F)c2cc3ccccc3s2)cc1Cl [Compound 586, 4-Amino-N-(benzo[b]thiophen-2-yl)-3-chloro-N-(3,3,3-trifluoro-propyl)-benzenesulfonamide]",–

Structure (SMILES),IC50 [nM],inhibition at 0.2 µM [%],% Inh @ 0.2 (μM) [%]
"CCCCN(c1sc2ccccc2c1Br)S(=O)(=O)c1ccc(N2CCOCC2)cc1 [Compound 559, N-(3-Bromo-benzo[b]thiophen-2-yl)-N-(butyl)-4-morpholine-benzenesulfonamide]",3.2,–,104.59
"O=S1NC(c2ccc(S(=O)(=O)N(CCCCC(F)(F)F)c3sc4ccccc4c3Br)cc2)=NO1 (centres unmarked) [Compound 581, N-(3-Bromo-benzo[b]thiophen-2-yl)-N-(5,5,5-trifluoro-pentyl)-4-(3H-[1,2,3,5]oxathiadiazole-2-oxide)-benzenesulfonamide]",25.1,–,100
"O=S1NC(c2ccc(S(=O)(=O)N(CCCCC(F)(F)F)c3sc4ccccc4c3Cl)cc2)=NO1 (centres unmarked) [Compound 582, N-(3-Chloro-benzo[b]thiophen-2-yl)-N-(5,5,5-trifluoro-pentyl)-4-(3H-[1,2,3,5]oxathiadiazole-2-oxide)-benzenesulfonamide]",50.3,–,96

# From patent US9434711B2 (Janssen Pharmaceutica, NV, priority 2007, dated 2016)
